Assay [1] has as its target T1, SjGST (Schistosoma japonicum, UniProt P08515). Kind of assay: CDNB conjugation assay. Format: biochemical. The following applies: aniline up to 20 mM.
For assay [2], the target named is T1, SjGST. As to the kind of experiment: SjGST-templated acylhydrazone DCL, amplification by HPLC. Format: binding. The following applies: DCL synthesis in the presence of a large excess of the inhibitor.

2 molecules from paper PMC2913121 (Nature chemistry, 2010) can be followed below.

SMILES strings stand for the structures.

T1 sequence (P08515 whole entry): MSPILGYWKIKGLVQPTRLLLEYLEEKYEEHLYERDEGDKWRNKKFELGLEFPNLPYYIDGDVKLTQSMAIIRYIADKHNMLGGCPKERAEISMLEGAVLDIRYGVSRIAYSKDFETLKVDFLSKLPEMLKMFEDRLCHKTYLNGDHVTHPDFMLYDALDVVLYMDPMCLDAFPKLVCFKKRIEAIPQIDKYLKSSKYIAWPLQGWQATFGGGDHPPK

Turning to `Nc1ccccc1` [aniline], the “SjGST GSH conjugation activity in the presence of the additive” value at SjGST [1] was “retained GSH conjugation activity”.
As for `C=C(CC)C(=O)c1ccc(OCC(=O)O)c(Cl)c1Cl` [ethacrynic acid], the “effect on DCL component amplification” value on SjGST [2] is “completely suppressed”.
